Assay results reported in PubChem BioAssay (NCI).
“And” between values parts separate entries of the source, which are not always exact repeats. Equal entries are not always repeated.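 Compound exposure: 48 hours, 5 concentrations, 96-well plates. Here, GI50 denotes the concentration required for 50% inhibition of growth. TGI is the concentration that stops growth completely.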 Where a SMILES comes first, the peptide text is derived from it. Bridges are numbered along the chain shown (N, C = ends). Roman numbers before positions name the chains, in order. [ ]: non-standard residue; d: D form. The star is where a group is joined. Quinoxaline2carbonyl = O=C(c1cnc2ccccc2n1)*; NMeV = CN[CH](C(=O)O)C(C)C; NMeC = CN[CH](CS)C(=O)O

Assays:
Assay in all cases: inhibition of tumour cell growth, NCI panel, 48 h
MDA-N = test system: MDA-N
DMS 114 small cell lung = test system: DMS 114 small cell lung
DMS 273 small cell lung = test system: DMS 273 small cell lung
HOP-18 NSCLC = test system: HOP-18 NSCLC
KM20L2 colon = test system: KM20L2 colon
M19-MEL melanoma = test system: M19-MEL melanoma
SNB-78 CNS = test system: SNB-78 CNS
RXF-631 renal = test system: RXF-631 renal
XF 498 CNS = test system: XF 498 CNS

Row | Compound | TGI (MDA-N) | TGI (DMS 114 small cell lung) | TGI (DMS 273 small cell lung) | TGI (HOP-18 NSCLC) | TGI (KM20L2 colon) | TGI (M19-MEL melanoma) | TGI (SNB-78 CNS) | TGI (XF 498 CNS) | further results
1 | N/N=C1\CC(=O)NC(=O)N1 | > 100 µM | – | – | – | – | – | – | – | –
2 | C[CH2][Pb]([CH2]C)([CH2]C)[O]C(=O)c1ccc2ccccc2n1 | > 10 µM | – | – | – | – | – | – | – | GI50 (MDA-N): > 10 µM
3 | CC1CN1c1c(C(=O)/C=C/c2ccccc2)c(-c2ccccc2)nn(C)c1=O (stereo unspecified) | – | 43.8 µM | 30.3 µM | 71.5 µM | 36.2 µM | 35.1 µM | 33.7 µM | – | –
4 | c1ccc(P(=Nc2ccccc2N=P(c2ccccc2)(c2ccccc2)c2ccccc2)(c2ccccc2)c2ccccc2)cc1 | – | 2.68 µM | 10 µM | 0.844 µM | 10.3 µM | 12.1 µM | 19.9 µM | 0.543 µM | TGI (RXF-631 renal): 6.64 µM
5 | CSC(=S)N/N=C(\C)c1cccc(C)n1 | > 90 µM | – | – | – | – | – | – | – | –
6 | COCCOCOc1ccc(OCOCCOC)c2c1C(=O)c1ccccc1C2=O | – | 37.3 µM | > 100 µM | > 100 µM | > 100 µM | 39 µM | > 100 µM | > 100 µM | –
7 | C/C1=C\[C@@H](O)C(=O)/C=C/C=C\c2csc(n2)[C@@H](C)NC(=O)C[C@@]2(CC1)S(=O)SC(=O)[C@]2(C)O (stereo partly specified) | – | 0.169 µM and 0.022 µM | 0.106 µM | 0.178 µM | 0.636 µM and 0.599 µM | – | 0.0589 µM | – | –
8 | CCO/C=C1\N=C(c2ccccc2Br)OC1=O | – | > 100 µM | > 100 µM | – | > 100 µM | > 100 µM | > 100 µM | > 100 µM | –
9 | CC1NC(=O)C(NC(=O)c2cnc3ccccc3n2)COC(=O)C(C(C)C)N(C)C(=O)C2CSSCC(C(=O)N(C)C(C(C)C)C(=O)OCC(NC(=O)c3cnc4ccccc4n3)C(=O)NC(C)C(=O)N2C)N(C)C1=O (stereo unspecified) (I: Quinoxaline2carbonyl-SA[NMeC][NMeV] / II: Quinoxaline2carbonyl-SA[NMeC][NMeV]; ester I:1-II:C, I:C-II:1; disulfide I:3-II:3; configuration not given here) | < 0.01 µM | – | – | – | – | – | – | – | –
10 | O=P1(Oc2ccccc2)C(c2ccccc2)C(c2ccccc2)=NN1c1ccccc1 (stereo unspecified) | – | 43.8 µM | 89.3 µM | > 100 µM | 44.9 µM | 54.9 µM | > 100 µM | > 100 µM | TGI (RXF-631 renal): > 100 µM
11 | O=C(O)COc1c(Cl)cc(Cl)c2cccnc12 | > 100 µM | – | – | – | – | – | – | – | –
12 | CCOC(=O)C(=O)Nc1cc(Cl)ccc1Cl | – | > 100 µM | > 100 µM | > 100 µM | > 100 µM | > 100 µM | – | > 100 µM | –
13 | N#Cc1ccc(N=Cc2c([O-])ccc3ccccc23)cc1.[C-]#[O+].[C-]#[O+].[Ir] | – | 3.66 µM | – | 8.51 µM | 29.5 µM | – | – | 12 µM | GI50 (DMS 114 small cell lung): 1.69 µM; GI50 (HOP-18 NSCLC): 2.74 µM; GI50 (KM20L2 colon): 16 µM; GI50 (XF 498 CNS): 2.36 µM
14 | Cc1ccc(C2=Nc3ccccc3SC(c3cccc([N+](=O)[O-])c3)C2)cc1 (stereo unspecified) | > 100 µM | – | – | – | – | – | – | – | –
15 | [N-]=[N+]=C1C(=O)C2CC3CC(C2)CC1C3 | – | > 100 µM | > 100 µM | > 100 µM | > 100 µM | > 100 µM | > 100 µM | > 100 µM | –
16 | COC(=O)CC1NC(=O)C1C1(C)OCCO1 (stereo unspecified) | – | > 100 µM | > 100 µM | – | > 100 µM | > 100 µM | – | > 100 µM | –
17 | CN(CC(N)=O)C(=O)N(CCCl)N=O | > 100 µM | – | – | – | – | – | – | – | –
18 | COC(CN1C=C(Sc2ccccc2)CC1)OC | – | 65.4 µM | – | > 100 µM | > 100 µM | 97.7 µM | > 100 µM | 66.3 µM | –
19 | c1ccc2c3c([nH]c2c1)C1CCCN1CC3 (stereo unspecified) | > 10 µM | – | – | – | – | – | – | – | –
20 | CN(C)CCC(/C=C/c1ccccc1)=N\Nc1ccc(Cl)cc1Cl | – | 29.5 µM | 25.9 µM | 21.9 µM | – | 29 µM | 26.9 µM | – | –
21 | COc1ccc(C=O)c(NC(=O)C(C)C)c1 | – | 88.7 µM | > 100 µM | 90.6 µM | > 100 µM | 49.5 µM | > 100 µM | 68.9 µM | –
22 | Cc1cc2c(c(C(=O)O)c1C)-c1cccc(F)c1C2=O | – | > 100 µM | > 100 µM | – | > 100 µM | > 100 µM | > 100 µM | > 100 µM | TGI (RXF-631 renal): > 100 µM
23 | Cc1ccc(NC(=O)c2ccccc2C(=O)O)cc1C | > 100 µM | – | – | – | – | – | – | – | –
